Data taken from patent US6403602B1 (priority 1997, dated 2002).
“Also recorded” adds a separate entry of the source.

Experiments:
[1] = tested on: nociception (tail-flick); assay: Tail-flick test after intracerebroventricular administration; format: in vivo; settings: rat tail-flick
[2] = target: mu opioid receptors (Cavia porcellus, UniProt A0ACM8Q262); format: binding, guinea pig
[3] = target: T1, delta receptors (Cavia porcellus, UniProt A0A286XTF2); assay: biochemical; format: binding, guinea pig
T1 construct: The brains were then homogenized in 50 mM Tris HCl, buffer pH 7.7, using a Polytron; from tissue; host or cells: guinea pig brain homogenate (membrane pellet)
T1 sequence (A0A286XTF2 1-366): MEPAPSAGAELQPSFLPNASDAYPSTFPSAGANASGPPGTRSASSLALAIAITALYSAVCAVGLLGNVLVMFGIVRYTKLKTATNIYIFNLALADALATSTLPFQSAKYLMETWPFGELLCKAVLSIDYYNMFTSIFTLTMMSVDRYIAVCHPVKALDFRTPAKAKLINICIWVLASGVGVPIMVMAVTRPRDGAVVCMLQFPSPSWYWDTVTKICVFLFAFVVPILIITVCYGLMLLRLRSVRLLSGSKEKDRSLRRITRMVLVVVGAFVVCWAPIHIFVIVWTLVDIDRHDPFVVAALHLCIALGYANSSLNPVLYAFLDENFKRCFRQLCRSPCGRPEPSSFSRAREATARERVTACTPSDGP

[4] = target: T2, kappa1 sites (Cavia porcellus, UniProt P41144); assay: biochemical; format: binding, guinea pig
T2 construct: The brains were then homogenized in 50 mM Tris HCl, buffer pH 7.7, using a Polytron; from tissue; host or cells: guinea pig brain homogenate (membrane pellet)
T2 sequence (P41144 whole entry): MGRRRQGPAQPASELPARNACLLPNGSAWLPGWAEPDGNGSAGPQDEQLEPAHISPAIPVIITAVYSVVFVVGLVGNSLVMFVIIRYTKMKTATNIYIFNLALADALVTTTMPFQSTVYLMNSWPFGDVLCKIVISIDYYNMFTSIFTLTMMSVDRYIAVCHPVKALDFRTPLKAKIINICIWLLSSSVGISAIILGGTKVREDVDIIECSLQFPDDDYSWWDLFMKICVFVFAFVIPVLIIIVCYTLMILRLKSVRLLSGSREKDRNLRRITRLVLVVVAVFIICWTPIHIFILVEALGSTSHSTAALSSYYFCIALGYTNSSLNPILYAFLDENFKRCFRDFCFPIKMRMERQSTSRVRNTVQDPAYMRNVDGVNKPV

[5] = tested on: κ2 sites; format: binding, guinea pig
[6] = tested on: kappa3 receptors; format: binding, guinea pig; settings: for Ki: read-out: Ki κ3 [^3H]NalBzoH
[7] = tested on: electrically stimulated guinea pig ileum; assay: tissue or blood; format: cell-based; settings: for IC50: Cavia porcellus, read-out: Guinea Pig Ileum IC50 (nM)
[8] = tested on: mu receptors; format: cell-based, guinea pig
[9] = target: T3, kappa receptors (Cavia porcellus, UniProt P41144); format: cell-based, guinea pig
T3 construct: The longitudinal muscle with the myenteric plexus attached was gently separated from the underlying circular muscle; from tissue; host or cells: guinea pig ileum longitudinal muscle with myenteric plexus
T3 sequence (P41144 whole entry): as above

[10] = tested on: electrically stimulated mouse vas deferens; assay: tissue or blood; format: cell-based
[11] = tested on: nociception (tail-flick); assay: Tail-flick test after subcutaneous administration; settings: rat tail-flick, sc; for analgesic activity in words / duration of maximal analgesic effect: dose equimolar to 5 mg/kg morphine
[12] = tested on: morphine withdrawal signs; assay: Single dose substitution and precipitated morphine withdrawal in morphine dependent Rhesus monkeys; settings: sc, M3A6S 2.5 and 10.0 mg/kg, DM3A6S 3.0, 12.0 and […]
[13] = target: T4, δ opioid receptor (Mus musculus, UniProt P32300); assay: Antagonist activity (pA2) at δ in the functional assays; format: cell-based
T4 construct: from tissue; host or cells: organ-bath tissue, probably mouse vas deferens
T4 sequence (P32300 whole entry): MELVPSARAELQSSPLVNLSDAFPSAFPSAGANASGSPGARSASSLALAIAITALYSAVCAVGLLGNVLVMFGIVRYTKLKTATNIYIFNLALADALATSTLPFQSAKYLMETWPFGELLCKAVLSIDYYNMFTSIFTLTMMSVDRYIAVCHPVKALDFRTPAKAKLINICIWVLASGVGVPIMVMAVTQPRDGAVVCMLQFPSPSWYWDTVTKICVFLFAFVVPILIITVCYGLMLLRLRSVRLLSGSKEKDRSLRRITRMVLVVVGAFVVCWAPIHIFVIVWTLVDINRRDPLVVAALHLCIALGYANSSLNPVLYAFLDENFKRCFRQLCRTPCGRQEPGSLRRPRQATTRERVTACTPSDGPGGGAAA

[14] = target: T5, κ opioid receptor (Cavia porcellus, UniProt P41144); assay: Antagonist activity (pA2) at κ in the functional assays; format: cell-based
T5 construct: from tissue; host or cells: organ-bath tissue, probably guinea pig ileum
T5 sequence (P41144 whole entry): as the sequence (P41144 whole entry) above

[15] = Mus musculus, read-out: Mouse vas deferens maximum inhibition
[16] = icv, molar dose equivalent to the lower dose of morphine

mu opioid receptors, sequence (A0ACM8Q262 1-400): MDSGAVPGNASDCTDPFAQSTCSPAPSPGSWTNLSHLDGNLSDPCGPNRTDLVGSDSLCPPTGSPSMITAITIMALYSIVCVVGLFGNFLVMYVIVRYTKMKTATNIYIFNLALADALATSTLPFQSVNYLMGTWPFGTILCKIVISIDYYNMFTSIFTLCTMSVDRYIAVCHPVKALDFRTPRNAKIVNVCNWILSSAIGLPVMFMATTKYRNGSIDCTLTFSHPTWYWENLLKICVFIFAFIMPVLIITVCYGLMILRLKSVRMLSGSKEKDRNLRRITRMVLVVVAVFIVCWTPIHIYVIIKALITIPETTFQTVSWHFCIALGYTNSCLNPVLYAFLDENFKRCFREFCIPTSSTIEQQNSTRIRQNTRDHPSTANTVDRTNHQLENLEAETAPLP

SMILES	Ki [3]	Ki [4]	IC50 [5]	Ki [6]	Guinea pig ileum, result in words [7]	IC50 [7]	Guinea Pig Ileum DR with CTAP [8]	Guinea Pig Ileum Ke of CTAP [8]	Guinea Pig Ileum Ratio (CTAP) [8]	Guinea Pig Ileum DR with Nor-BNI [9]	Guinea Pig Ileum Ke of Nor-BNI [9]	Guinea Pig Ileum Ratio (Nor-BNI) [9]	other results
CN1CC[C@]23c4c5ccc(O)c4O[C@H]2[C@@H](O)C=C[C@H]3[C@H]1C5 [Morphine, morphine]	–	–	–	–	–	–	–	–	–	–	–	–	onset of analgesic response after icv injection ([1]; higher dose 23.6 μg/4 μl/rat): 6 min
CC(=O)Oc1ccc2c3c1O[C@H]1[C@@H](OS(=O)(=O)O)C=C[C@H]4[C@@H](C2)N(C)CC[C@@]341 [NIDA # 20,264, 3-O-Acetylmorphine-6-O-sulfate]	308 nM	1160 nM	> 10000 nM	5.5 nM	inhibited electrically induced twitches	25.9 ± 5.3 nM	5.40 ± 0.18	22.73 ± 0.91	0.851	1.39 ± 0.14	54.42 ± 19.6	0.001	Ki mu/Ki delta [2]: 0.0026; affinity to mu receptors in words [2]: greater affinity than that of morphine; selectivity for mu-receptors, greater than morphine [2]: 3 fold; binding to kappa1 sites in words [4]: weakly; affinity to kappa3 receptors in words [6]: greater affinity than that of morphine; selectivity for kappa3 receptors, greater than morphine [6]: 2.2 fold; inhibition at 200 µM [10, 15]: 30%; duration of maximal analgesia [1, 16]: 90 min; time to maximal analgesic effect [1, 16]: 10 min; analgesic activity in words [11]: analgesic profile similar to that of M6S; duration of maximal analgesic effect [11]: 4 h; substitution for morphine / withdrawal, in words [12]: did not substitute for morphine, nor did it exacerbate withdrawal
CN1CC[C@]23c4c5ccc(O)c4O[C@H]2[C@@H](OS(=O)(=O)O)C=C[C@H]3[C@H]1C5 [NIDA # 20,266, Morphine-6-O-Sulfate]	18 nM	1190 nM	> 10000 nM	6.3 nM	inhibited electrically induced twitches	67 ± 12.1 nM	5.00 ± 2.16	29.18 ± 15.7	0.663	0.87 ± 0.06	–	–	affinity to mu receptors in words [2]: greater affinity than that of morphine; selectivity for mu-receptors, greater than morphine [2]: 3 fold; affinity to delta receptors in words [3]: greater affinity than that of morphine; binding to kappa1 sites in words [4]: weakly; affinity to kappa3 receptors in words [6]: greater affinity than that of morphine; selectivity for kappa3 receptors, greater than morphine [6]: 2.2 fold; duration of maximal analgesia [1, 16]: 70 min; analgesic activity in words [11]: maximal analgesic effect similar to morphine; duration of maximal analgesic effect [11]: over 3 hours
CC(=O)Oc1ccc2c3c1O[C@H]1[C@@H](OS(=O)(=O)[O-])C=C[C@H]4[C@@H](C2)[N+](C)(C)CC[C@@]341 [NIDA # 20,269, 3-O-Acetyl-N-methylmorphinium-6-O-sulfate]	842 nM	–	> 10000 nM	400 nM	no activity; also recorded: lacks activity	–	–	–	–	–	–	–	Mouse vas deferens, result in words [10]: lacks activity; inhibition at 200 µM [10, 15]: 20%; analgesic activity in words ([11]; listed as MM3A6S): devoid of any analgesic properties; also recorded: inactive
CC(C)C(=O)Oc1ccc2c3c1O[C@H]1[C@@H](OS(=O)(=O)O)C=C[C@H]4[C@@H](C2)N(C)CC[C@@]341 [NIDA # 20,271, 3-O-Isobutyrylmorphine-6-O-sulfate]	584 nM	4560 nM	> 10000 nM	266 nM	–	1960 nM	9.45 ± 4.31	13.55 ± 6.89	1.427	1.38 ± 0.01	53.14 ± 1.30	0.001	inhibition at 100 µM [10, 15]: 38%
CN1CC[C@]23c4c5ccc(OC(=O)C(C)(C)C)c4O[C@H]2[C@@H](OS(=O)(=O)O)C=C[C@H]3[C@H]1C5 [NIDA # 20,272, 3-O-Pivaloylmorphine-6-O-sulfate]	15.2 nM	1940 nM	> 10000 nM	11.2 nM	–	69.3 ± 25 nM	4.50 ± 0.14	–	0.676	1.13 ± 0.01	154.77 ± 16.8	0.0004	inhibition at 20 µM [10, 15]: 26.2%
CN1CC[C@]23c4c5ccc(OC(=O)c6ccccc6)c4O[C@H]2[C@@H](OS(=O)(=O)O)C=C[C@H]3[C@H]1C5 [NIDA # 20,273, 3-O-Benzoylmorphine-6-O-sulfate]	600 nM	–	> 10000 nM	513 nM	inhibited electrically induced twitches	658 ± 130 nM	3.68 ± 0.27	34.92 ± 3.22	0.554	1.31 ± 0.13	70.73 ± 29.13	0.001	inhibition at 100 µM [10, 15]: 29.4%; analgesic activity in words ([11]; listed as M3B6S): gradual onset of weak analgesia; also recorded: inactive; maximum analgesia, % of maximal analgesia ([11]; equimolar dose, over 4 hours): 27%
C=CCN1CC[C@]23c4c5ccc(O)c4O[C@H]2/C(=N/NC(=O)c2ccccc2)CC[C@@]3(O)[C@H]1C5 [NalBzoH, naloxone benzoylhydrazone]	1.4 nM	0.4 nM	66.5 nM	0.3 nM	–	–	–	–	–	–	–	–	Kb [13]: 17.4 nM; Kb [14]: 17.4 nM
Oc1ccc2c3c1O[C@H]1c4[nH]c5ccccc5c4C[C@@]4(O)[C@@H](C2)N(CC2CC2)CC[C@]314 [Naltrindole]	–	7.8 nM	540 nM	12.4 nM	–	–	–	–	–	–	–	–	Kb [13]: 0.012 nM; Kb [14]: 24.5 nM
